Patent US11377441B2, “Covalent inhibitors of KRAS” (Araxes Pharma LLC, priority 2017, dated 2022)

target: T1, KRAS G12C 1-169, his-tagged protein, GDP-loaded (Homo sapiens, UniProt P01116, G12C); test: Biochemical assay: covalent modification of KRAS G12C measured by mass spectrometry (RapidFire/TOF or Q-Exactive); type: binding; details: covalent binding to (modification of) KRAS G12C after a ten minute incubation period
T1 construct: KRAS G12C 1-169, his-tagged protein, GDP-loaded
Method in brief: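 GDP-loaded KRAS G12C 1-169 (his-tagged) at 2 μM or 0.5 μM in 20 mM Hepes, 150 mM NaCl, 1 mM MgCl2, incubated with compound at 100, 30 or 10 μM at room temperature for 10 min, 30 min, 2 h or 24 h, then quenched with formic acid. Intact-protein LC-MS, deconvolved; percent modification from modified versus unmodified protein.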

**Q.** Which Binding % does the source give for `C=CC(=O)N1C[C@H](C)N(c2nc(N3CC(NC)C3)nc3c(F)c(-c4c(C)ccc5[nH]nc(C6CC6)c45)c(Cl)cc23)C[C@H]1C` [Compound 209, 1-((2R,5S)-4-((R)-6-chloro-7-(3-cyclopropyl-5-methyl-1H-indazol-4-yl)-8-fluoro-2-(3-(methylamino)azetidin-1-yl)quinazolin-4-yl)-2,5-dimethylpiperazin-1-yl)prop-2-en-1-one] here?
**A.** +++ (+++ indicates binding activity greater than 80%)

**Q.** For `C=CC(=O)N1C[C@H](C)N(c2nc(N3CC(N(C)C)C3)nc3c(F)c(-c4c(C)ccc5sncc45)c(Cl)cc23)C[C@H]1C` [Compound 124, 1-((2R,5S)-4-(6-chloro-2-(3-(dimethylamino)azetidin-1-yl)-8-fluoro-7-(5-methylbenzo[d]isothia-zol-4-yl)quinazolin-4-yl)-2,5-dimethylpiperazin-1-yl)prop-2-en-1-one], which Binding % is on record?
**A.** ++ (++ indicates binding activity from 50 to 80%)

**Q.** Which Binding % does the source give for `C=CC(=O)N1C[C@H](C)N(c2nc(N3CC(N(C)C)C3)nc3c(F)c(-c4c(F)ccc5cnn(C)c45)c(Cl)cc23)C[C@H]1C` [Compound 145, 1-((2R,5S)-4-(6-chloro-2-(3-(dimethylamino)azetidin-1-yl)-8-fluoro-7-(6-fluoro-1-methyl-1H-indazol-7-yl)quinazolin-4-yl)-2,5-dimethylpiperazin-1-yl)prop-2-en-1-one] here?
**A.** +++ (+++ indicates binding activity greater than 80%)

**Q.** With `C=CC(=O)N1CCN(c2nc(N3CC(N(C)C)C3)nc3c(F)c(-c4c(C)ccc5[nH]nc(C6CC6)c45)c(Cl)cc23)CC1` (atropisomer, axis not shown) [Compound 104, (R)-1-(4-(6-chloro-7-(3-cyclopropyl-5-methyl-1H-indazol-4-yl)-2-(3-(dimethylamino)azetidin-1-yl)-8-fluoroquinazolin-4-yl)piperazin-1-yl)prop-2-en-1-one] as the compound, how does the Binding % read?
**A.** +++ (+++ indicates binding activity greater than 80%)

**Q.** For `C=CC(=O)N1C[C@H](C)N(c2nc(N3CC(N(C)C)C3)nc3c(F)c(-c4c(C)ccc5cnn(C)c45)c(Cl)cc23)C[C@H]1C` [Compound 120, 1-((2R,5S)-4-(6-chloro-7-(1,6-dimethyl-1H-indazol-7-yl)-2-(3-(dimethylamino)azetidin-1-yl)-8-fluoroquinazolin-4-yl)-2,5-dimethylpiperazin-1-yl)prop-2-en-1-one], which Binding % is on record?
**A.** ++ (++ indicates binding activity from 50 to 80%)

**Q.** `C=CC(=O)N1C[C@H](C)N(c2nc(N3CC(N(C)C)C3)nc3c(F)c(-c4c(C)ccc5c(O)n[nH]c45)c(Cl)cc23)C[C@H]1C` [Compound 65, 1-((2R,5S)-4-(6-chloro-2-(3-(dimethylamino)azetidin-1-yl)-8-fluoro-7-(3-hydroxy-6-methyl-1H-indazol-7-yl)quinazolin-4-yl)-2,5-dimethylpiperazin-1-yl)prop-2-en-1-one] was tested. Which Binding % did it give?
**A.** + (+ indicates binding activity greater than 0% and up to 50%)

**Q.** Which Binding % does the source give for `C=CC(=O)N1C[C@H](C)N(c2nc(N3CC(N(C)C)C3)nc3c(F)c(-c4c(C)ccc5[nH]nc(C)c45)c(Cl)cc23)C[C@H]1C` (atropisomer, axis not shown) [Compound 97, 1-((2R,5S)-4-((S)-6-chloro-7-(3,5-dimethyl-1H-indazol-4-yl)-2-(3-(dimethylamino)azetidin-1-yl)-8-fluoroquinazolin-4-yl)-2,5-dimethylpiperazin-1-yl)prop-2-en-1-one] here?
**A.** + (+ indicates binding activity greater than 0% and up to 50%)

**Q.** For `C=CC(=O)N1C[C@H](C)N(c2nc(OC[C@@H]3CCCN3C)nc3c(F)c(-c4c(C)ccc5[nH]nc(C6CC6)c45)c(Cl)cc23)C[C@H]1C` (atropisomer, axis not shown) [Compound 227, 1-((2R,5S)-4-((S)-6-chloro-7-(3-cyclopropyl-5-methyl-1H-indazol-4-yl)-8-fluoro-2-(((S)-1-methylpyrrolidin-2-yl)methoxy)quinazolin-4-yl)-2,5-dimethylpiperazin-1-yl)prop-2-en-1-one], which Binding % is on record?
**A.** + (+ indicates binding activity greater than 0% and up to 50%)

**Q.** For `C=CC(=O)N1C[C@H](C)N(c2nc(N3CC(N(C)C)C3)nc3c(F)c(-c4c(C)ccc5cnn(C6CC6)c45)c(Cl)cc23)C[C@H]1C` [Compound 128, 1-((2R,5S)-4-(6-chloro-7-(1-cyclopropyl-6-methyl-1H-indazol-7-yl)-2-(3-(dimethylamino)azetidin-1-yl)-8-fluoroquinazolin-4-yl)-2,5-dimethylpiperazin-1-yl)prop-2-en-1-one], which Binding % is on record?
**A.** +++ (+++ indicates binding activity greater than 80%)

**Q.** With `C=CC(=O)N1[C@H](C)CN(c2nc(N3CC(N(C)C)C3)nc3c(F)c(-c4c(C)ccc5cnn(C)c45)c(Cl)cc23)C[C@@H]1C` (atropisomer, axis not shown) [Compound 142, 1-((2S,6R)-4-((R)-6-chloro-7-(1,6-dimethyl-1H-indazol-7-yl)-2-(3-(dimethylamino)azetidin-1-yl)-8-fluoroquinazolin-4-yl)-2,6-dimethylpiperazin-1-yl)prop-2-en-1-one] as the compound, how does the Binding % read?
**A.** +++ (+++ indicates binding activity greater than 80%)

**Q.** Which Binding % does the source give for `C=CC(=O)N1C[C@H](C)N(c2nc(N3CC(N(C)C)C3)nc3c(F)c(-c4cccc5c(Cl)n[nH]c45)c(Cl)cc23)C[C@H]1C` [Compound 158, 1-((2R,5S)-4-(6-chloro-7-(3-chloro-1H-indazol-7-yl)-2-(3-(dimethylamino)azetidin-1-yl)-8-fluoroquinazolin-4-yl)-2,5-dimethylpiperazin-1-yl)prop-2-en-1-one] here?
**A.** ++ (++ indicates binding activity from 50 to 80%)

**Q.** For `C=CC(=O)N1C[C@H](C)N(c2nc(OC[C@@H]3CN(C)CCO3)nc3c(F)c(-c4c(C)ccc5cnn(C)c45)c(Cl)cc23)C[C@H]1C` [Compound 176, 1-((2R,5S)-4-(6-chloro-7-(1,6-dimethyl-1H-indazol-7-yl)-8-fluoro-2-(((S)-4-methylmorpholin-2-yl)methoxy)quinazolin-4-yl)-2,5-dimethylpiperazin-1-yl)prop-2-en-1-one], which Binding % is on record?
**A.** +++ (+++ indicates binding activity greater than 80%)

**Q.** Which Binding % does the source give for `C=CC(=O)N1C[C@H](C)N(c2nc(N3CC(N(C)C)C3)nc3c(F)c(-c4cncc5[nH]ncc45)c(Cl)cc23)C[C@H]1C` [Compound 77, 1-((2R,5S)-4-(6-chloro-2-(3-(dimethylamino)azetidin-1-yl)-8-fluoro-7-(1H-pyrazolo[3,4-c]pyridin-4-yl)quinazolin-4-yl)-2,5-dimethylpiperazin-1-yl)prop-2-en-1-one] here?
**A.** + (+ indicates binding activity greater than 0% and up to 50%)

**Q.** Which Binding % does the source give for `C=CC(=O)N1C[C@H](C)N(c2nc(OCCN3CC[C@H](F)C3)nc3c(F)c(-c4c(C)ccc5[nH]nc(N)c45)c(Cl)cc23)C[C@H]1C` [Compound 109, 1-((2R,5S)-4-(7-(3-amino-5-methyl-1H-indazol-4-yl)-6-chloro-8-fluoro-2-(2-((S)-3-fluoropyrrolidin-1-yl)ethoxy)quinazolin-4-yl)-2,5-dimethylpiperazin-1-yl)prop-2-en-1-one] here?
**A.** +++ (+++ indicates binding activity greater than 80%)

**Q.** With `C=CC(=O)N1C[C@H](C)N(c2nc(OC[C@H]3CCCN3C)nc3c(F)c(-c4c(C)ccc5[nH]nc(C6CC6)c45)c(Cl)cc23)C[C@H]1C` [Compound 172, 1-((2R,5S)-4-(6-chloro-7-(3-cyclopropyl-5-methyl-1H-indazol-4-yl)-8-fluoro-2-(((R)-1-methylpyrroldiin-2-yl)methoxy)quinazolin-4-yl)-2,5-dimethylpiperazin-1-yl)prop-2-en-1-one] as the compound, how does the Binding % read?
**A.** +++ (+++ indicates binding activity greater than 80%)

**Q.** With `C=CC(=O)N1C[C@H](C)N(c2nc(OCCN(CC)CC)nc3c(F)c(-c4c(C)ccc5[nH]nc(N)c45)c(Cl)cc23)C[C@H]1C` [Compound 78, 1-((2R,5S)-4-(7-(3-amino-5-methyl-1H-indazol-4-yl)-6-chloro-2-(2-(diethylamino)ethoxy)-8-fluoroquinazolin-4-yl)-2,5-dimethylpiperazin-1-yl)prop-2-en-1-one] as the compound, how does the Binding % read?
**A.** +++ (+++ indicates binding activity greater than 80%)

**Q.** With `C=CC(=O)N1C[C@H](C)N(c2nc(N3CC(N(C)C)C3)nc3c(F)c(-c4c(F)ccc5cnn(C)c45)c(Cl)cc23)C[C@H]1C` (atropisomer, axis not shown) [Compound 156, 1-((2R,5S)-4-((S)-6-chloro-2-(3-(dimethylamino)azetidin-1-yl)-8-fluoro-7-(6-fluoro-1-methyl-1H-indazol-7-yl)quinazolin-4-yl)-2,5-dimethylpiperazin-1-yl)prop-2-en-1-one] as the compound, how does the Binding % read?
**A.** +++ (+++ indicates binding activity greater than 80%)

**Q.** For `C=CC(=O)N1C[C@@H](C)N(c2nc(N3CC(N(C)C)C3)nc3c(F)c(-c4c(C)ccc5cnn(C)c45)c(Cl)cc23)C[C@@H]1C` (atropisomer, axis not shown) [Compound 245, 1-((2S,5R)-4-((S)-6-chloro-7-(1,6-dimethyl-1H-indazol-7-yl)-2-(3-(dimethylamino)azetidin-1-yl)-8-fluoroquinazolin-4-yl)-2,5-dimethylpiperazin-1-yl)prop-2-en-1-one], which Binding % is on record?
**A.** + (+ indicates binding activity greater than 0% and up to 50%)

**Q.** With `C=CC(=O)N1C[C@H](C)N(c2nc(OC[C@H]3CN(C)CCO3)nc3c(F)c(-c4c(C)ccc5[nH]nc(C6CC6)c45)c(Cl)cc23)C[C@H]1C` [Compound 189, 1-((2R,5S)-4-(6-chloro-7-(3-cyclopropyl-5-methyl-1H-indazol-4-yl)-8-fluoro-2-(((R)-4-methylmorpholiln-2-yl)methoxy)quinazolin-4-yl)-2,5-dimethylpiperazin-1-yl)prop-2-en-1-one] as the compound, how does the Binding % read?
**A.** +++ (+++ indicates binding activity greater than 80%)

**Q.** `C=CC(=O)N1C[C@H](C)N(c2nc(OCCN3CCC(F)(F)C3)nc3c(F)c(-c4c(C)ccc5onc(N)c45)c(Cl)cc23)C[C@H]1C` [Compound 85, 1-((2R,5S)-4-(7-(3-amino-5-methylbenzo[d]isoxazol-4-yl)-6-chloro-2-(2-(3,3-difluoropyrrolidin-1-yl)ethoxy)-8-fluoroquinazolin-4-yl)-2,5-dimethylpiperazin-1-yl)prop-2-en-1-one] was tested. Which Binding % did it give?
**A.** +++ (+++ indicates binding activity greater than 80%)
